Assay results from patent publication US20260217672A1, “BENZAMIDE COMPOUNDS FOR TREATMENT OF BACTERIAL INFECTIONS” (Hoffmann-La Roche Inc., priority 2022, published 2026).
≈ marks a conversion by molar mass, not a printed value.

How the values were obtained:
[1] = Human microsome stability assay; type: in vitro ADME; conditions: 1 μM test compound, 0.5 mg/mL liver microsomal protein, NADPH regenerating system, 37° C.; <7 low, 7-16.2 medium, >16.2 high
Protocol: The human microsomal stability assay is used for early assessment of metabolic stability of a test compound in human liver microsomes.
Human liver microsomes (Cat.NO.: 452117, Corning, USA) were pre-incubated with test compound for 10 minutes at 37° C. in 100 mM potassium phosphate buffer, pH 7.4. The reactions were initiated by adding NADPH regenerating system. The final incubation mixtures contained 1 μM test compound, 0.5 mg/mL liver microsomal protein, 1 mM MgCl2, 1 mM NADP, 1 unit/mL isocitric dehydrogenase and 6 mM isocitric acid in 100 mM potassium phosphate buffer, pH 7.4. After incubation times of 0, 3, 6, 9, 15 and 30 minutes at 37° C., 300 μL of cold acetonitrile (including internal standard) was added to 100 μL incubation mixture to terminate the reaction. Following precipitation and centrifugation, the amount of compound remaining in the samples were determined by LC-MS/MS. Controls of no NADPH regenerating system at zero and 30 minutes were also prepared and analyzed. […] (Human microsome clearance: <7 mL/min/kg (low); 7-16.2 mL/min/kg (medium); >16.2 mL/min/kg (high))

[2] = system: Escherichia coli ATCC 25922; test: Minimal Inhibitory Concentration (MIC) broth dilution assay; type: cell-based; conditions: ATCC25922, 20 h, read-out: MIC Escherichia coli ATCC 25922
In short: (§1)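 Broth dilution MIC in cation-adjusted Mueller Hinton broth, final inoculum 5×10^5 CFU/mL, serial 2-fold compound dilutions from DMSO stocks. Plates incubated 20 hours at 35° C. in ambient air; MIC read visually as lowest concentration inhibiting visible growth.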

[3] = system: Klebsiella pneumonia ATCC 43816; test: as above; type: cell-based; conditions: Klebsiella pneumoniae, ATCC43816, 20 h, read-out: MIC Klebsiella pneumoniae ATCC43816
In short: as §1

Row | SMILES | Clearance of Human microsome [1] [mL/min/kg] | MIC [2] [µg/mL] | MIC [3] [µg/mL]
1 | NCCCNCc1ccc(C(=O)Nc2ccc(S(=O)(=O)N3CCN(c4cc(C(F)(F)F)cc(Cl)n4)CC3)cc2)cc1 [Example 001, 4-[(3-Aminopropylamino)methyl]-N-[4-[4-[6-chloro-4-(trifluoromethyl)-2-pyridyl]piperazin-1-yl]sulfonylphenyl]benzamide] | 6.2 | 0.51 (≈ 0.835 µM) | 1.5 (≈ 2.45 µM)
2 | NCCCNCc1ccc(C(=O)Nc2ccc(S(=O)(=O)N3CCN(c4nccc(C(F)(F)F)n4)CC3)cc2)cc1 [Example 012, 4-[(3-Aminopropylamino)methyl]-N-[4-[4-[4-(trifluoromethyl)pyrimidin-2-yl]piperazin-1-yl]sulfonylphenyl]benzamide] | 6.2 | 1.8 (≈ 3.12 µM) | 3.6 (≈ 6.23 µM)
3 | CC(=O)Oc1ccc(C(=O)N2CCc3cc(S(=O)(=O)N4CCN(c5cc(C(F)(F)F)cc(Cl)n5)CC4)ccc32)cc1OC(C)=O [Example 043, [2-Acetoxy-4-[5-[4-[6-chloro-4-(trifluoromethyl)-2-pyridyl]piperazin-1-yl]sulfonylindoline-1-carbonyl]phenyl]acetate] | 6.2 | 4.2 (≈ 6.3 µM) | 2.1 (≈ 3.15 µM)
4 | O=C(c1cnn2cccnc12)N1CCc2cc(S(=O)(=O)N3CCN(c4cc(C(F)(F)F)cc(Cl)n4)CC3)ccc21 [Example 034, [5-[4-[6-Chloro-4-(trifluoromethyl)-2-pyridyl]piperazin-1-yl]sulfonylindolin-1-yl]-pyrazolo[1,5-a]pyrimidin-3-yl-methanone] | 6.2 | 0.92 (≈ 1.55 µM) | 0.92 (≈ 1.55 µM)
5 | N#Cc1cc(Cl)nc(N2CCN(S(=O)(=O)c3ccc(NC(=O)c4cccc(CNCCCN)c4)cc3)CC2)c1 [Example 020, 3-[(3-Aminopropylamino)methyl]-N-[4-[4-(6-chloro-4-cyano-2-pyridyl)piperazin-1-yl]sulfonylphenyl]benzamide] | 8.8 | 1.2 (≈ 2.11 µM) | 2.5 (≈ 4.4 µM)
6 | O=C(CNCCO)N1CCc2cc(S(=O)(=O)N3CCN(c4cc(C(F)(F)F)cc(Cl)n4)CC3)ccc21 [Example 041, 1-[5-[4-[6-Chloro-4-(trifluoromethyl)-2-pyridyl]piperazin-1-yl]sulfonylindolin-1-yl]-2-(2-hydroxyethylamino)ethanone] | 6.2 | 1 (≈ 1.82 µM) | 8.3 (≈ 15.1 µM)
7 | NCCCNCc1ccc(C(=O)Nc2ccc(S(=O)(=O)N3CCN(c4cc(C(F)(F)F)cc(Cl)n4)CC3)cn2)cc1 [Example 029, 4-[(3-Aminopropylamino)methyl]-N-[5-[4-[6-chloro-4-(trifluoromethyl)-2-pyridyl]piperazin-1-yl]sulfonyl-2-pyridyl]benzamide] | – | 1.9 (≈ 3.1 µM) | 3.8 (≈ 6.21 µM)
8 | CN1CC2CCN(CCc3ccc(C(=O)Nc4ccc(S(=O)(=O)N5CCN(c6cc(C(F)(F)F)cc(Cl)n6)CC5)cc4)cc3)C2C1 (stereo not drawn) [Example 071, N-[4-[4-[6-chloro-4-(trifluoromethyl)-2-pyridyl]piperazin-1-yl]sulfonylphenyl]-4-[2-(5-methyl-2,3,3a,4,6,6a-hexahydropyrrolo[2,3-c]pyrrol-1-yl)ethyl]benzamide] | – | 4.2 (≈ 6.2 µM) | 4.2 (≈ 6.2 µM)
9 | O=C(Nc1ccc(S(=O)(=O)N2CCN(c3cc(C(F)(F)F)cc(Cl)n3)CC2)cc1)c1cccc(CNCCCN(CCO)CCO)c1 [Example 080, 3-[[3-[Bis(2-hydroxyethyl)amino]propylamino]methyl]-N-[4-[4-[6-chloro-4-(trifluoromethyl)-2-pyridyl]piperazin-1-yl]sulfonylphenyl]benzamide] | – | 1.4 (≈ 2 µM) | 2.9 (≈ 4.15 µM)
10 | CC1CN(S(=O)(=O)c2ccc(NC(=O)c3cccc(CNCCCN)c3)cc2)CCN1c1cc(C(F)(F)F)cc(Cl)n1 (stereo not drawn) [Example 022, 3-[(3-Aminopropylamino)methyl]-N-[4-[4-[6-chloro-4-(trifluoromethyl)-2-pyridyl]-3-methyl-piperazin-1-yl]sulfonylphenyl]benzamide] | – | 3.9 (≈ 6.24 µM) | 3.9 (≈ 6.24 µM)
11 | NC1CCC12CN(CCc1ccc(C(=O)Nc3ccc(S(=O)(=O)N4CCN(c5cc(C(F)(F)F)cc(Cl)n5)CC4)cc3)cc1)C2 (stereo not drawn) [Example 070, 4-[2-(7-Amino-2-azaspiro[3.3]heptan-2-yl)ethyl]-N-[4-[4-[6-chloro-4-(trifluoromethyl)-2-pyridyl]piperazin-1-yl]sulfonylphenyl]benzamide] | – | 1.2 (≈ 1.81 µM) | 2.4 (≈ 3.62 µM)
12 | NCCCNCc1ccc(C(=O)Nc2ccc(S(=O)(=O)N3CCN(c4cc(C(F)(F)F)c(Cl)cn4)CC3)cc2)cc1 [Example 003, 4-[(3-Aminopropylamino)methyl]-N-[4-[4-[5-chloro-4-(trifluoromethyl)-2-pyridyl]piperazin-1-yl]sulfonylphenyl]benzamide] | – | 1.4 (≈ 2.29 µM) | 3.8 (≈ 6.22 µM)
13 | NCCCN1CCC(c2cccc(C(=O)Nc3ccc(S(=O)(=O)N4CCN(c5cc(C(F)(F)F)cc(Cl)n5)CC4)cc3)c2)C1 (stereo not drawn) [Example 067, 3-[1-(3-Aminopropyl)pyrrolidin-3-yl]-N-[4-[4-[6-chloro-4-(trifluoromethyl)-2-pyridyl]piperazin-1-yl]sulfonylphenyl]benzamide] | – | 0.51 (≈ 0.783 µM) | 1 (≈ 1.54 µM)
14 | O=C(Nc1ccc(S(=O)(=O)N2CCN(c3cc(C(F)(F)F)cc(Cl)n3)CC2)cc1)c1ccc(CCNCCCN2CCOCC2)cc1 [Example 073, N-[4-[4-[6-chloro-4-(trifluoromethyl)-2-pyridyl]piperazin-1-yl]sulfonylphenyl]-4-[2-(3-morpholinopropylamino)ethyl]benzamide] | – | 1.4 (≈ 2.01 µM) | 2.9 (≈ 4.17 µM)
15 | CN=S(=O)(c1ccc(NC(=O)c2cccc(CNCCCN)c2)cc1)N1CCN(c2cc(C(F)(F)F)cc(Cl)n2)CC1 (stereo not drawn) [Example 026, 3-[(3-aminopropylamino)methyl]-N-[4-[S-[4-[6-chloro-4-(trifluoromethyl)-2-pyridyl]piperazin-1-yl]-N-methyl-sulfonimidoyl]phenyl]benzamide] | – | 3.9 (≈ 6.25 µM) | 7.8 (≈ 12.5 µM)
16 | NCCCNCc1ccc(C(=O)Nc2ccc(S(=O)(=O)N3CCN(c4cc(C(F)(F)F)nc(Cl)n4)CC3)cc2)cc1 [Example 005, 4-[(3-Aminopropylamino)methyl]-N-[4-[4-[2-chloro-6-(trifluoromethyl)pyrimidin-4-yl]piperazin-1-yl]sulfonylphenyl]benzamide] | – | 1.9 (≈ 3.1 µM) | 7.7 (≈ 12.6 µM)
17 | O=C(C1=NOC2(CCCNC2)C1)N1CCc2cc(S(=O)(=O)N3CCN(c4cc(C(F)(F)F)cc(Cl)n4)CC3)ccc21 (stereo not drawn) [Example 039] | 9.4 | – | –
18 | O=C(Nc1ccc(S(=O)(=O)N2CCN(c3cc(C(F)(F)F)cc(Cl)n3)CC2)cc1)c1ccc2c(c1)CNC2 [Example 046, N-[4-[4-[6-chloro-4-(trifluoromethyl)-2-pyridyl]piperazin-1-yl]sulfonylphenyl]isoindoline-5-carboxamide] | – | 0.47 (≈ 0.83 µM) | 0.47 (≈ 0.83 µM)
19 | N#Cc1cc(C(F)(F)F)cc(N2CCN(S(=O)(=O)c3ccc(NC(=O)c4ccc(CCNCCCN)cc4)cc3)CC2)n1 [Example 016, 4-[2-(3-Aminopropylamino)ethyl]-N-[4-[4-[6-cyano-4-(trifluoromethyl)-2-pyridyl]piperazin-1-yl]sulfonylphenyl]benzamide] | – | 1.9 (≈ 3.09 µM) | 3.8 (≈ 6.17 µM)
20 | COc1cc(NC(=O)c2cccc(CNCCCN)c2)ccc1S(=O)(=O)N1CCN(c2cc(C(F)(F)F)cc(Cl)n2)CC1 [Example 027, 3-[(3-Aminopropylamino)methyl]-N-[4-[4-[6-chloro-4-(trifluoromethyl)-2-pyridyl]piperazin-1-yl]sulfonyl-3-methoxy-phenyl]benzamide] | – | 4 (≈ 6.24 µM) | 4 (≈ 6.24 µM)
21 | NC1(C2CCN(Cc3cccc(C(=O)Nc4ccc(S(=O)(=O)N5CCN(c6cc(C(F)(F)F)cc(Cl)n6)CC5)cc4)c3)C2)CC1 (stereo not drawn) [Example 079, 3-[[3-(1-Aminocyclopropyl)pyrrolidin-1-yl]methyl]-N-[4-[4-[6-chloro-4-(trifluoromethyl)-2-pyridyl]piperazin-1-yl]sulfonylphenyl]benzamide] | – | 1.1 (≈ 1.66 µM) | 2.2 (≈ 3.32 µM)
22 | NCCCNCc1ccc(C(=O)Nc2ccc(S(=O)(=O)N3CCN(c4cc(C(F)(F)F)ccn4)CC3)cc2)cc1 [Example 002, 4-[(3-Aminopropylamino)methyl]-N-[4-[4-[4-(trifluoromethyl)-2-pyridyl]piperazin-1-yl]sulfonylphenyl]benzamide] | – | 1.8 (≈ 3.12 µM) | 5.4 (≈ 9.36 µM)
23 | O=C(Nc1ccc(S(=O)(=O)N2CCN(c3cc(C(F)(F)F)cc(Cl)n3)CC2)cc1)c1cccc(N2CC3CC2CN3)c1 (stereo not drawn) [Example 047, N-[4-[4-[6-chloro-4-(trifluoromethyl)-2-pyridyl]piperazin-1-yl]sulfonylphenyl]-3-(2,5-diazabicyclo[2.2.1]heptan-2-yl)benzamide] | – | 1.1 (≈ 1.77 µM) | 2.3 (≈ 3.7 µM)
